The NIST ThermoML archive (doi:10.1007/s10765-005-8590-7)

Assay: xn = mol fraction of the nth substance listed
Conditions: Fluid (supercritical or subcritical phases), Constant-volume piezometry

N [ammonia] + O
Conditions	mass density [kg/m3]
253.18 K, 483.5 kPa, x1 = 0.1386	956.4
254.14 K, 619.3 kPa, x1 = 0.1386	956.35
257.06 K, 1159.1 kPa, x1 = 0.1386	956.19
259.15 K, 1375.1 kPa, x1 = 0.1086	964.04
259.15 K, 1646.6 kPa, x1 = 0.1386	956.07
260.13 K, 3144.3 kPa, x1 = 0.0999	971.4
260.15 K, 1417.1 kPa, x1 = 0.1086	963.99
260.15 K, 3759 kPa, x1 = 0.0955	968.65
261.02 K, 2146.1 kPa, x1 = 0.1386	955.96
261.14 K, 1483.6 kPa, x1 = 0.1086	963.95
261.15 K, 3146.8 kPa, x1 = 0.0999	971.36
261.15 K, 3737.1 kPa, x1 = 0.0955	968.61
262.12 K, 3739.8 kPa, x1 = 0.0955	968.57
262.15 K, 1572 kPa, x1 = 0.1086	963.9
262.15 K, 3173.9 kPa, x1 = 0.0999	971.31
263.13 K, 1676.5 kPa, x1 = 0.1086	963.85
263.13 K, 1686.6 kPa, x1 = 0.1086	963.85
263.13 K, 3221.1 kPa, x1 = 0.0999	971.27
263.16 K, 3225.1 kPa, x1 = 0.0999	971.27
263.16 K, 3766.5 kPa, x1 = 0.0955	968.52
263.96 K, 16220 kPa, x1 = 0.0606	987.12
264.11 K, 3813.7 kPa, x1 = 0.0955	968.48
264.14 K, 3297.9 kPa, x1 = 0.0999	971.22
264.15 K, 1824.1 kPa, x1 = 0.1086	963.8
265 K, 16117 kPa, x1 = 0.0606	987.08
265.13 K, 3469.4 kPa, x1 = 0.1386	955.71
265.15 K, 1981.7 kPa, x1 = 0.1086	963.75
265.15 K, 3396.5 kPa, x1 = 0.0999	971.17
265.15 K, 3889.7 kPa, x1 = 0.0955	968.43
265.18 K, 5311.9 kPa, x1 = 0.0644	979.94
265.38 K, 8334.6 kPa, x1 = 0.064	980.35
265.62 K, 811.9 kPa, x1 = 0.0591	975.65
265.99 K, 16054 kPa, x1 = 0.0606	987.04
266.12 K, 16223 kPa, x1 = 0.047	989.78
266.14 K, 745.3 kPa, x1 = 0.0591	975.64
266.14 K, 8277 kPa, x1 = 0.064	980.32
266.15 K, 2619 kPa, x1 = 0.0582	979.8
266.63 K, 698.1 kPa, x1 = 0.0591	975.62
267.09 K, 4204.5 kPa, x1 = 0.1386	955.58
267.13 K, 2495.5 kPa, x1 = 0.0582	979.77
267.14 K, 8221.5 kPa, x1 = 0.064	980.28
267.15 K, 298 kPa, x1 = 0.1436	952.4
267.15 K, 2355.6 kPa, x1 = 0.1086	963.64
267.15 K, 3654.7 kPa, x1 = 0.0999	971.07
267.15 K, 16033 kPa, x1 = 0.047	989.74
267.16 K, 634.7 kPa, x1 = 0.0591	975.6
267.17 K, 5193.7 kPa, x1 = 0.0644	979.87
268.02 K, 15974 kPa, x1 = 0.0606	986.96
268.1 K, 7316.4 kPa, x1 = 0.0513	984.85
268.15 K, 723.3 kPa, x1 = 0.1436	952.33
268.17 K, 2415.7 kPa, x1 = 0.0582	979.73
268.17 K, 15948 kPa, x1 = 0.047	989.7
269 K, 15979 kPa, x1 = 0.0606	986.92
269.1 K, 7244.1 kPa, x1 = 0.0513	984.81
269.1 K, 7256.7 kPa, x1 = 0.0513	984.81
269.11 K, 500.6 kPa, x1 = 0.0591	975.52
269.14 K, 2812.6 kPa, x1 = 0.1086	963.53
269.14 K, 5179.9 kPa, x1 = 0.0644	979.78
269.15 K, 1141.1 kPa, x1 = 0.1436	952.26
269.15 K, 4001.7 kPa, x1 = 0.0999	970.97
269.15 K, 8192.6 kPa, x1 = 0.064	980.19
269.15 K, 8194.7 kPa, x1 = 0.064	980.19
269.17 K, 15892 kPa, x1 = 0.047	989.66
269.18 K, 4424 kPa, x1 = 0.0955	968.23
269.19 K, 2364.1 kPa, x1 = 0.0582	979.69
269.2 K, 5071.6 kPa, x1 = 0.1386	955.44
270.13 K, 15862 kPa, x1 = 0.047	989.62
270.14 K, 4346.8 kPa, x1 = 0.0302	991.12
270.15 K, 1609 kPa, x1 = 0.1436	952.18
270.15 K, 7195.1 kPa, x1 = 0.0513	984.77
270.15 K, 15862 kPa, x1 = 0.047	989.62
270.99 K, 16062 kPa, x1 = 0.0606	986.82
271.11 K, 15856 kPa, x1 = 0.047	989.57
271.12 K, 467.5 kPa, x1 = 0.0591	975.44
271.13 K, 15857 kPa, x1 = 0.047	989.57
271.14 K, 3349.5 kPa, x1 = 0.1086	963.41
271.15 K, 2091.5 kPa, x1 = 0.1436	952.11
271.15 K, 3960.4 kPa, x1 = 0.014	996.21
271.15 K, 7177.2 kPa, x1 = 0.0513	984.72
271.15 K, 8265.9 kPa, x1 = 0.064	980.1
271.16 K, 4437.7 kPa, x1 = 0.0999	970.85
271.17 K, 4208.2 kPa, x1 = 0.0302	991.09
271.17 K, 5274.3 kPa, x1 = 0.0644	979.69
271.18 K, 2339.7 kPa, x1 = 0.0582	979.6
271.18 K, 4814.2 kPa, x1 = 0.0955	968.12
272.15 K, 3778.7 kPa, x1 = 0.014	996.18
272.15 K, 4113.5 kPa, x1 = 0.0302	991.05
272.15 K, 7185.7 kPa, x1 = 0.0513	984.68
272.15 K, 15879 kPa, x1 = 0.047	989.53
273.13 K, 4952 kPa, x1 = 0.0999	970.74
273.14 K, 506.6 kPa, x1 = 0.0591	975.35
273.14 K, 4040.3 kPa, x1 = 0.0302	991.01
273.14 K, 16263 kPa, x1 = 0.0606	986.71
273.15 K, 2431.2 kPa, x1 = 0.0582	979.51
273.15 K, 3104.4 kPa, x1 = 0.1436	951.96
273.15 K, 3633.6 kPa, x1 = 0.014	996.14
273.15 K, 3634.2 kPa, x1 = 0.014	996.14
273.15 K, 3935 kPa, x1 = 0.1086	963.29
273.15 K, 7219.4 kPa, x1 = 0.0513	984.63
273.15 K, 8435.9 kPa, x1 = 0.064	980.01
273.17 K, 15928 kPa, x1 = 0.047	989.48
274.14 K, 16000 kPa, x1 = 0.047	989.44
274.15 K, 3992.2 kPa, x1 = 0.0302	990.97
274.15 K, 7279.5 kPa, x1 = 0.0513	984.59
274.99 K, 16547 kPa, x1 = 0.0606	986.61
275.08 K, 7892.7 kPa, x1 = 0.1386	955.03
275.13 K, 677.5 kPa, x1 = 0.0591	975.25
275.14 K, 2612.8 kPa, x1 = 0.0582	979.41
275.15 K, 3430.4 kPa, x1 = 0.014	996.07
275.15 K, 3431.2 kPa, x1 = 0.014	996.07
275.15 K, 3970.2 kPa, x1 = 0.0302	990.93
275.15 K, 4178.5 kPa, x1 = 0.1436	951.81
275.15 K, 4633.1 kPa, x1 = 0.1086	963.16
